“And” between values parts separate entries of the source, which are not always exact repeats. Equal values may be shown once. Numbers after ± are expanded uncertainties.
Experiment: isobaric coefficient of expansion
Conditions: Gas, Pressure calorimetry

N#N [nitrogen]
isobaric coefficient of expansion (302.9 K, 15 kPa): 0.004 ± 0.0001 1/K
isobaric coefficient of expansion (302.9 K, 30 kPa): 0.0036 ± 0.0001 1/K
isobaric coefficient of expansion (302.9 K, 39.9 kPa): 0.00322 ± 0.0001 1/K
isobaric coefficient of expansion (302.9 K, 60 kPa): 0.00262 ± 8e-05 1/K
isobaric coefficient of expansion (302.9 K, 70 kPa): 0.00243 ± 8e-05 1/K
isobaric coefficient of expansion (302.9 K, 80 kPa): 0.00224 ± 7e-05 1/K
isobaric coefficient of expansion (302.9 K, 89.9 kPa): 0.00209 ± 7e-05 1/K
isobaric coefficient of expansion (322.9 K, 13 kPa): 0.0036 ± 0.0001 1/K
isobaric coefficient of expansion (322.9 K, 14 kPa): 0.0036 ± 0.0001 1/K
isobaric coefficient of expansion (322.9 K, 15 kPa): 0.0036 ± 0.0001 1/K
isobaric coefficient of expansion (322.9 K, 16 kPa): 0.0036 ± 0.0001 1/K
isobaric coefficient of expansion (322.9 K, 18 kPa): 0.0036 ± 0.0001 1/K
isobaric coefficient of expansion (322.9 K, 20 kPa): 0.0036 ± 0.0001 1/K
isobaric coefficient of expansion (322.9 K, 30 kPa): 0.00333 ± 0.0001 1/K
isobaric coefficient of expansion (322.9 K, 40 kPa): 0.00303 ± 0.0001 1/K
isobaric coefficient of expansion (322.9 K, 60 kPa): 0.0025 1/K and 0.00251 1/K
isobaric coefficient of expansion (322.9 K, 80 kPa): 0.00212 ± 7e-05 1/K
isobaric coefficient of expansion (352.6 K, 14 kPa): 0.00309 ± 0.0001 1/K
isobaric coefficient of expansion (352.6 K, 30 kPa): 0.00297 1/K and 0.00299 1/K
isobaric coefficient of expansion (352.6 K, 40 kPa): 0.0026 ± 0.0001 1/K
isobaric coefficient of expansion (352.6 K, 50 kPa): 0.00252 ± 8e-05 1/K
isobaric coefficient of expansion (352.6 K, 60 kPa): 0.00232 ± 8e-05 1/K
isobaric coefficient of expansion (352.6 K, 70 kPa): 0.00217 ± 6.7e-05 1/K
isobaric coefficient of expansion (352.6 K, 80 kPa): 0.002 ± 7e-05 1/K
isobaric coefficient of expansion (352.6 K, 90 kPa): 0.00186 ± 6e-05 1/K
isobaric coefficient of expansion (422.2 K, 18 kPa): 0.00244 ± 8e-05 1/K
isobaric coefficient of expansion (422.2 K, 22 kPa): 0.00249 ± 8e-05 1/K
isobaric coefficient of expansion (422.2 K, 24 kPa): 0.00248 ± 8e-05 1/K
isobaric coefficient of expansion (422.2 K, 26 kPa): 0.00238 ± 8e-05 1/K
isobaric coefficient of expansion (422.2 K, 28 kPa): 0.00236 ± 8e-05 1/K
isobaric coefficient of expansion (422.2 K, 30 kPa): 0.00236 ± 8e-05 1/K
isobaric coefficient of expansion (422.2 K, 40 kPa): 0.00225 ± 6e-05 1/K
isobaric coefficient of expansion (422.2 K, 50 kPa): 0.00206 ± 6e-05 1/K
isobaric coefficient of expansion (422.2 K, 60 kPa): 0.00194 ± 5e-05 1/K
isobaric coefficient of expansion (422.2 K, 70 kPa): 0.00184 ± 6e-05 1/K
isobaric coefficient of expansion (422.2 K, 80 kPa): 0.00177 ± 6e-05 1/K
isobaric coefficient of expansion (422.2 K, 90 kPa): 0.00165 ± 6e-05 1/K
